Data published in patent publication US6426352B1, “Sulfonamide inhibitors of farnesyl-protein transferase” (Schering Corporation, priority 1997, dated 2002).

Legend:
[1] = molecular target: T1, partially purified rat brain farnesyl protein transferase (FPT) (Rattus norvegicus, UniProt Q02293+Q04631); assay: In vitro enzyme assay: inhibition of Ras-CVLS farnesylation by farnesyl protein transferase (H-ras FPT); format: biochemical
T1 construct: partially purified rat brain farnesyl protein transferase (FPT); from tissue; host or cells: rat brain
Experimental: 1. In vitro enzyme assays: FPT IC50 (inhibition of farnesyl protein transferqase, in vitro enzyme assay) are determined by the methods disclosed in […] or WO 95/10516.

[2] = tested on: Ras processing in COS cells; assay: Cell-based assay: COS cells activity, inhibition of Ras processing
Experimental: 2. Cell-based assay. COS IC50 values refer to the COS cells activity inhibition of Ras processing, are determined by the methods disclosed in […] or WO 95/10516.

SMILES | IC50 [1] [nM] | melting point [°C] | IC50 [2] [nM]
O=S(=O)(c1ccccc1)N1CCC([C@H]2c3ncc(Br)cc3CCc3cc(Cl)cc(Br)c32)CC1 [Example 12, (+)-4-(3,10-Dibromo-8-chloro-6,11-dihydro-5H-benzo[5,6]cyclohepta[1,2-b]pyridin-11(R)-yl)-1-(phenylsulfonyl)pipiridine] | 179 |  | 
C=CS(=O)(=O)N1CCC(C2c3ncc(Br)cc3CCc3cc(Cl)cc(Br)c32)CC1 (single isomer, unassigned; (+)) [Example 11, (+)-4-(3,10-Dibromo-8-chloro-11-dihydro-5H-benzo[5,6]cyclohepta[1,2-b]pyridin-11-yl)-1-(vinylsulfonyl)pipiridine] | 32 |  | 
CS(=O)(=O)N1CCC(C2c3ncc(Br)cc3CCc3cc(Cl)cc(Br)c32)CC1 (single isomer, unassigned; (+)) [Example 4, (+)-4-(3,10-Dibromo-8-chloro-11-dihydro-5H-benzo[5,6]cyclohepta[1,2-b]pyridin-11-yl)-1-(methylsulfonyl)pipiridine] | 7 | 216 to 217 | 15
Cn1cnc(S(=O)(=O)N2CCC([C@H]3c4ncc(Br)cc4CCc4cc(Cl)cc(Br)c43)CC2)c1 [Example 13, (+)-4-(3,10-Dibromo-8-chloro-6,11-dihydro-5H-benzo[5,6]cyclohepta[1,2-b]pyridin-11(R)-yl)-1-[(1-methyl-1H-imidazol-4-yl)sulfonyl]pipiridine] | 85 |  | 
CCCCS(=O)(=O)N1CCC(C2c3ncc(Br)cc3CCc3cc(Cl)cc(Br)c32)CC1 (single isomer, unassigned; (+)) [Example 8, (+)-4-(3,10-Dibromo-8-chloro-11-dihydro-5H-benzo[5,6]cyclohepta[1,2-b]pyridin-11-yl)-1-(butylsulfonyl)pipiridine] | 320 | 73 to 74 | 
CN(C)S(=O)(=O)N1CCC(C2c3ncc(Br)cc3CCc3cc(Cl)cc(Cl)c32)CC1 (single isomer, unassigned; (+)) [Example 2, (+)-4-(3-Bromo-8,10-dichloro-6,11-dihydro-5H-benzo[5,6,]cyclohepta[1,2-b]pyridin-11-yl)-N-N-dimethyl-1-piperidinesulfonamide] | 164 | 202 to 203 | 
NS(=O)(=O)N1CCC(C2c3ncc(Br)cc3CCc3cc(Cl)cc(Cl)c32)CC1 (single isomer, unassigned; (+)) [Example 3, (+)-4-(3-Bromo-8,10-dichloro-6,11-dihydro-5H-benzo[5,6]cyclohepta[1,2-b]pyridin-11-yl)-1-(aminosulfonyl)piperidine] | 26 | 133 to 134 | 

Continued, in another order:

IC50 [1] [nM] | melting point [°C] | SMILES | IC50 [2] [nM]
34 | 111 to 112 | O=S(=O)(N1CCC(C2c3ncc(Br)cc3CCc3cc(Cl)cc(Br)c32)CC1)C(F)(F)F (single isomer, unassigned; (+)) [Example 9, (+)-4-(3,10-Dibromo-8-chloro-11-dihydro-5H-benzo[5,6]cyclohepta[1,2-b]pyridin-11-yl)-1-(trifluoromethylsulfonyl)pipiridine] | 
276 |  | O=S(=O)(c1ccc(-c2ccon2)s1)N1CCC([C@H]2c3ncc(Br)cc3CCc3cc(Cl)cc(Br)c32)CC1 [Example 14, (+)-4-(3,10-Dibromo-8-chloro-6,11-dihydro-5H-benzo[5,6]cyclohepta[1,2-b]pyridin-11(R)-yl)-1-[(5-(3-isoxazolyl)-2-thienyl]sulfonyl]pipiridine] | 
110 | 203 to 205 | CC(C)S(=O)(=O)N1CCC(C2c3ncc(Br)cc3CCc3cc(Cl)cc(Br)c32)CC1 (single isomer, unassigned; (+)) [Example 7, (+)-4-(3,10-Dibromo-8-chloro-11-dihydro-5H-benzo[5,6]cyclohepta[1,2-b]pyridin-11-yl)-1-(isopropylsulfonyl)pipiridine] | 
15.4 | 202 to 203 | CCS(=O)(=O)N1CCC(C2c3ncc(Br)cc3CCc3cc(Cl)cc(Br)c32)CC1 (single isomer, unassigned; (+)) [Example 5, (+)-4-(3,10-Dibromo-8-chloro-11-dihydro-5H-benzo[5,6]cyclohepta[1,2-b]pyridin-11-yl)-1-(ethylsulfonyl)pipiridine] | 
32 | 97 to 98 | CCCS(=O)(=O)N1CCC(C2c3ncc(Br)cc3CCc3cc(Cl)cc(Br)c32)CC1 (single isomer, unassigned; (+)) [Example 6, (+)-4-(3,10-Dibromo-8-chloro-11-dihydro-5H-benzo[5,6]cyclohepta[1,2-b]pyridin-11-yl)-1-(propylsulfonyl)pipiridine] | 
89 | 174 to 175 | O=S(=O)(CC(F)(F)F)N1CCC(C2c3ncc(Br)cc3CCc3cc(Cl)cc(Br)c32)CC1 (single isomer, unassigned; (+)) [Example 10, (+)-4-(3,10-Dibromo-8-chloro-11-dihydro-5H-benzo[5,6]cyclohepta[1,2-b]pyridin-11-yl)-1-(trifluoroethylsulfonyl)pipiridine] | 
8 | 160 to 163 | CS(=O)(=O)N1CCC(C2c3ncc(Br)cc3CCc3cc(Cl)cc(Cl)c32)CC1 (single isomer, unassigned; (+)) [Example 1, (+)-4-(3-Bromo-8,10-dichloro-6,11-dihydro-5H-benzo[5,6]cyclohepta[1,2-b]pyridin-11-yl)-1-(methylsulfonyl)pipiridine] | 420
